Tests used:
Format in all cases: cell-based, human
[1] = tested on: tissue factor (TF); assay: TF activity (coagulation) assay on LPS-induced PBMC treated in whole blood
Procedure: In order to determine if taurolidine would inhibit LPS-induced TF expression in PBMC in their native milieu, i.e., whole blood, a tissue factor activity assay was performed. LPS (10 ng/ml) and taurolidine (100-500 μg/ml) or equal dilutions of the taurolidine vehicle were added to 5 ml aliquots of heparinized blood, and the blood was incubated in 50 ml centrifuige tubes at 37° C., rotating on a horizontal rotator at 120 rpm. After 4 hours, PBMC were purified from the blood using Histopaque as described previously. Cells were lysed by 3 freeze-thaw cycles, and used as a source of TF in coagulation assays. For these assays, 50 μl of lysate (at 2×10^7 cells/ml) was added to 50 μl pooled normal human plasma, incubated for 30 seconds at 37° C., then 50 μl of 25 MM CaCl2 was added and clot formation assayed using a Diagnostica Stago ST4 coagulometer. Protein content of the cell samples was determined by bicinchoninic acid assay (Pierce Chemical Company, Rockford, Ill.), and used to normalize the clotting data. A standard curve was made with descyto TF reconstituted in PS/PC vesicles according to the method of Mimms et al. (Mimms, et al., "Phospholipid vesicle formation and transmembrane protein incorporation using octyl glucoside," Biochemistry 20:833-840 (1981)). One unit of TF was defined as that which caused clot formation at 50 seconds of incubation with CaCl2. The TF activity assays were performed on LPS-induced PBMC after 4 hour treatment in whole blood. A dose-response effect of taurolidine on monocyte TF is illustrated in Table II. […] Thus, higher concentrations of taurolidine were required to inhibit TF when the PBMC were treated with whole blood when compared to PBMC in culture medium. Further, lower concentrations of taurolidine were required to down-regulate TF expression than were needed to induce apoptosis as described below.
^a Heparinized blood was incubated in the presence of LPS and varying
amounts of taurolidine, then PBMC were purified, and coagulation assays
performed on cell lysates. Units of TF per mg protein were calculated as
described above, and data expressed as percentage of LPS-only ("control")
samples. Data shown are mean ± S.D. of two experiments.

[2] = tested on: Jurkat cells; assay: growth rate after taurolidine treatment, Jurkat
Procedure: (§1) FIGS. 9A and 9B depict cell viability and growth rates for Jurkat cell line following taurolidine treatment, in terms of % trypan blue negative cells and % cell number, respectively. Cells were treated with various concentrations of taurolidine for 4 hours in AIM-V+0.01% BCS. After aliquots were collected for LDH assay, the remainder of the culture was rinsed in HBSS and resuspended in RPMI+10% BCS without taurolidine. Counts of trypan blue-negative cells (FIG. 9A), and total cell number (FIG. 9B), were recorded daily thereafter (with the measurement at Day 1 being made immediately after the 4 hour taurolidine treatment). Conditions were: no treatment (open circles); 25 μg/ml taurolidine (closed circles); 50 μg/ml taurolidine (open squares); 100 μg/ml taurolidine (closed squares); and vehicle alone (closed triangles). Doubling times were determined under each condition, and expressed as a percentage of the rate of doubling of untreated cells. These values are located to the right of the growth curves in (FIG. 9B). […]
(§2) HL-60 cells treated with 50 μl taurolidine. In these samples, LDH present in the culture medium was 8.3±2.3% of that released by completely lysed cells, compared with 2.3±0.8% measured in control cultures. […] After 4 hour treatment, cells were rinsed and returned to growth medium and monitored for viability and growth over the following 3 days. […]

[3] = tested on: GM5387 (fibroblasts); assay: trypan blue exclusion, GM5387; details: GM5387, after taurolidine treatment
Procedure: as §1, with “11A” for “9A”, “11B” for “9B”, “GM5387” for “Jurkat”, “11A),” for “9A),”, “11B),” for “9B),”, “11B).” for “9B).”
as §2

**Q.** What does the source list for `O=S1(=O)CCN(CN2CCS(=O)(=O)NC2)CN1` [taurolidine, 4,4'-methylenebis(perhydro-1,2,4-thiadiazin 1,1-dioxide)]?
**A.** activity at 100 µg/mL ([1]; Homo sapiens, PBMC, 100 μg/ml taurolidine, 4 h, mean ± S.D. of two experiments, read-out: coagulation activity of LPS-induced PBMC, % of control): 87.7 ± 6.6%; inhibition at 100 µg/mL ([1]; Homo sapiens, PBMC, 100 μg/ml taurolidine, 4 h, read-out: decrease of TF activity): 12%; activity at 200 µg/mL ([1]; Homo sapiens, PBMC, 200 μg/ml taurolidine, 4 h, mean ± S.D. of two experiments, read-out: coagulation activity of LPS-induced PBMC, % of control): 41.7 ± 8%; inhibition at 200 µg/mL ([1]; Homo sapiens, PBMC, 200 μg/ml taurolidine, 4 h, read-out: decrease of TF activity): ~60%; activity at 500 µg/mL ([1]; Homo sapiens, PBMC, 500 μg/ml taurolidine, 4 h, mean ± S.D. of two experiments, read-out: coagulation activity of LPS-induced PBMC, % of control): 26.5 ± 10.6%; inhibition at 500 µg/mL ([1]; Homo sapiens, PBMC, 500 μg/ml taurolidine, 4 h, read-out: loss of TF activity): ~75%; reduction of TF activity of LPS-induced monocytes ([1]; taurolidine as low as 200 μg/ml): significant reduction; sensitivity of cell growth among cell lines [2]: least affected; trypan blue staining during 4 day growth [3]: did not demonstrate a significant increase in trypan blue staining; trypan blue staining during 4 day growth ([3]; listed as Taurolidine): cells remained trypan blue negative

Reference: patent US6303596A, “Use of taurolidine for treatment of leukemias” (priority 2000, dated 2001)
